The values below come from patent US8778921B2, “Ansamycin hydroquinone compositions” (Infinity Pharmaceuticals, Inc., priority 2008, dated 2014).

Series [1] is described as follows: Solubilizing or suspending agents: color change as indication of oxidation of 17-AG-HQ to 17-AG. The class given is physicochemical. As to conditions: argon headspace, checked up to one hour. The protocol:
Solvents (2 mL) were pipetted out into labeled vials (Table 4). After purging the headspace with argon, the solvent vials were chilled at 4° C. for 1 hour. 17-AG-HQ of Example 2 (10 mg) was added each solvent vial and headspace was purged again with argon. The vials were checked for color change for up to one hour. Color change is an indication of stability: 17-AG-HQ is yellow while 17-AG is pink, thus a color change from yellow to pink would indicate oxidation of 17-AG-HQ to 17-AG. This listing of suitable solvents or suspending agents is also applicable for solvating/suspending the hydroquinones of Examples 3-6, 8, 10 or 11.

The nature of series [2]: Stability at 40° C. and 75% relative humidity (percent purity by HPLC). Type of series: physicochemical. The conditions noted are these: 40° C. and 75% RH. The protocol:
As used herein, a “stable composition” refers a composition comprising a sulfur-containing compound and a baseline amount of the compound of formula (I) (e.g., such as percent purity as measured by HPLC) such that, after being subjected to standard stability conditions (e.g., 40° C. and 75% relative humidity) for a specified period of time (e.g., 1 day, 2 days, 3 days, 4 days, 5 days, 7 days, 14 days, 21 days, or 30 days), at least about 80% of the original amount of the compound of formula (I) remains in the composition (i.e., has not oxidized to a compound of formula (II) or degraded to other by-products). In certain embodiments, at least about 85%, at least about 90%, at least about 91%, at least about 92%, at least about 93%, at least about 94%, or at least about 95% of the original amount of the hydroquinone compound of formula (I) remains in the composition for a specified period of time (e.g., 1 day, 2 days, 3 days, 4 days, 5 days, 7 days, 14 days, 21 days, or 30 days).
The stability data for 17-AG-HQ of Example 2 when kept at 40° C. and 75% relative humidity (RH) is depicted in FIG. 8 (see Table 2 for tabulated stability data). It was observed that 17-AG-HQ of Example 2 completely oxidizes to its quinone form in two weeks at 40° C. and […] as determined by HPLC.

Setting [3] is: Table 12, formulations of 17-AG-HQ of Example 2.

Each structure is given as a SMILES string.

As to `CO[C@H]1/C=C\C=C(/C)C(=O)Nc2cc(O)c(N)c(c2O)C[C@@H](C)C[C@H](OC)[C@H](O)[C@@H](C)/C=C(\C)[C@@H]1OC(N)=O` [17-AG-HQ of Example 2, 17-amino-geldanamycin hydroquinone], the Observations result in series [1] (Acetone, 10 mg in 2 mL solvent chilled at 4° C.) is on record as “Dissolves with no color change”; in series [1] (DMSO:Acetonitrile:TFA (80:20:0.1), 10 mg in 2 mL solvent chilled at 4° C.), “Dissolves with color change to rusty”; in series [1] (Dichloromethane, 10 mg in 2 mL solvent chilled at 4° C.), “Dissolves with no color change”; in series [1] (Ethanol, 10 mg in 2 mL solvent chilled at 4° C.), “Dissolves with no color change”; in series [1] (Methanol, 10 mg in 2 mL solvent chilled at 4° C.), “Dissolves with color change to red”; in series [1] (Mineral Oil, 10 mg in 2 mL chilled at 4° C.), “Suspends with no color change”. The Observations result in series [1] (Propylene Glycol, 10 mg in 2 mL solvent chilled at 4° C.) is reported as “Dissolves with color change to rusty”; in series [1] (Toluene, 10 mg in 2 mL solvent chilled at 4° C.), “Dissolves with no color change”; in series [1] (Xylene, 10 mg in 2 mL solvent chilled at 4° C.) it was “Dissolves with no color change”. Further, the “time in which the hydroquinone completely oxidizes to its quinone form” value in series [2] (determined by HPLC) is “two”. In addition, the “stability compared to 17-AG-HQ HCl salt of Example 1” value in series [2] (more prone to oxidation) is “less stable”. Also, the “Percent Purity of 17-AG-HQ T = 0 Days” value in series [2] (Table 2) and in series [2] (setting [3]) was 92% each time. Further, the “Percent Purity of 17-AG-HQ T = 2 Days” value in series [2] (Table 2) and in series [2] (setting [3]) was 66% in each case. Also, the “Percent Purity of 17-AG-HQ T = 5 Days” value in series [2] (Table 2) and in series [2] (setting [3]) was 22% throughout. Also, the “Percent Purity of 17-AG-HQ T = 14 Days” value in series [2] (Table 2) and in series [2] (setting [3]) was 0% throughout. Besides, the “Percent Purity of 17-AG-HQ T = 30 Days” value in series [2] (Table 2) and in series [2] (setting [3]) was 0% throughout.
